The test system of one assay is C57BL/6J mice on the HFD. The assay can be described thus: Evaluation of phenylmethimazole in preventing NAFLD in mice (Example 2). The class given is in vivo. On the procedure:
Triglycerides were quantified in accordance with the following general protocol, based upon the Salmon and Flatt Method of Liver Saponification. 50-100 mg of liver tissue was placed into an Eppendorf tube and weighed. Equal volume per weight of 3 M KOH (in 65% EtOH) was added to the tube and vortexed. The tube was placed at 70° C. for 1 hr to activate digestion. The tubes were vortexed every 15 minutes. The tube was set at room temperature overnight to allow for complete digestion, and was vortexed periodically. The sample was diluted to a final concentration of 100 mg of liver tissue per 600 μl fluid; the sample was diluted by adding 2 M Tris-HCl (un-pHed) to a final concentration of 50 mM. Where a second dilution was required, the sample was diluted using 50 mM Tris-HCl (pH 7.5). Triglycerides-GPO (0.5 mL, liquid; Pointe Scientific Cat. No. T7532-500; Fisher Scientific, Pittsburgh, Pa.) were aliquoted into Eppendorf tubes and warmed in a 37° C. water bath for 5-10 minutes. Glycerol standards (0, 1, 2.5, 5, 7.5 and 10 mmol/L) were made by diluting 10 mmol/L stock of glycerol, such as, e.g., with 50 mM Tris-HCl. 5 μL of the sample and glycerol standards (0, 1, 2.5, 5, 7.5 and 10 mmol/L) were added to 0.5 mL of the triglycerides-GPO, mixed, and incubated at room temperature for 5 minutes. The mixture was then vortexed and added (200 μL) to each well of a 96-well flat-bottom ELISA plate (in duplicate). Absorbance (i.e., optical density) was read at 500 nm. The concentrations of the samples were determined via use of a plot of glycerol standards concentration (mmol/L) with respect to optical density (i.e., O.D.) at 500 nm. The concentration of glycerol (mg glycerol/g tissue) was then calculated and triglyceride concentration was determined, in accordance with calculations known to those of ordinary skill in the art.
Experimental Protocol. 7 week old male C57BL/6J mice were placed on either a LFD (i.e., having a fat content of 10%, N=8) or a HFD (i.e., having a fat content of 60%, N=40). The mice placed on the LFD served as a control. […]
After 18 weeks, all of the C57BL/6J mice were euthanized. […] More specifically, NAFLD was evaluated in the liver tissue of the euthanized C57BL/6J mice microscopically and molecularly. Following euthanasia, the liver of each mouse was removed and divided, wherein one portion was used for the microscopic analysis of NAFLD and another portion was used for the molecular analysis of NAFLD (i.e., quantification of triglycerides). Quantification of triglycerides was performed in accordance with the general protocol described in Example 1.

Assay [1] concerns C57BL/6J mice placed on an HFD. The assay can be described thus: Evaluation of phenylmethimazole in treating NAFLD in C57BL/6J mice fed high fat diet (Example 3). As to conditions: HFD mice with NAFLD, ip once daily 1, 3 or 10 mg/kg/day for 16 weeks (up to 24 weeks); contemplated result. The class given is in vivo. On the procedure: Experimental Protocol. C57BL/6J mice are placed on an HFD containing 60% fat (by % Kcal) (Diet #D12492, Research Diets, Inc.) for a period of weeks (as determined by the results of Example 1) until development of NAFLD is observed and clearly distinguishable from LFD-fed mice of the same age (between 4-8 weeks). At the time or after NAFLD is observed, once daily ip injections of phenylmethimazole (i.e., C10), DMSO, or sham are administered. 5 mice are then euthanized weekly thereafter to characterize the effects of C10, DMSO, and/or sham on treatment of NAFLD for the period of 16 weeks post-initiation of C10, DMSO, and sham administration. The period of time for which treatment is administered will be extended to 24 weeks if no effect of C10 administration on treatment of NAFLD is observed. The following Table further illustrates the experimental design: […]
NAFLD is evaluated in the liver of the HFD mice macroscopically, microscopically, and molecularly. […] Then, the liver of each mouse is split in half, wherein one half is used for microscopic analysis of NAFLD and the remaining half is used for molecular analysis of NAFLD (i.e., quantification of triglycerides). Quantification of triglycerides is performed in accordance with the general protocol described in Example 1.

Assay [2] concerns patient at risk for developing NAFLD. As to the kind of experiment: Therapeutic use of phenylmethimazole to prevent development of NAFLD (Example 4). The class given is in vivo, human. As to conditions: once daily oral dose of 1 mg/kg chronically, contemplated result. The procedure:
Experimental Protocol. A patient at risk for developing NAFLD is prescribed phenylmethimazole to prevent excess accumulation of fat. The patient takes a once daily oral dose of 1 mg/kg of body weight of phenylmethimazole chronically, during which fat content in the liver is determined via liver function testing, liver ultrasound, and liver biopsy.

The next assay concerns patient having NAFLD. The assay can be described thus: Therapeutic use of phenylmethimazole to treat NAFLD (Example 5). The class given is in vivo, human. The conditions noted are these: once daily oral dose of 3 mg/kg for 16 weeks, contemplated result. The procedure: Experimental Protocol. A patient having NAFLD is prescribed phenylmethimazole to reduce the fat content in their liver. After determination of a baseline level of fat content in their liver, the patient takes a once daily oral dose of 3 mg/kg of body weight of phenylmethimazole for a period of 16 weeks, during which fat content in their liver tissue is determined via liver function testing, liver ultrasound, and liver biopsy.

Here are results for one molecule from patent US9750723B2, “Prevention and treatment of non-alcoholic fatty liver disease” (Ohio University, priority 2014, dated 2017).

`Cn1c(-c2ccccc2)cnc1S` [phenylmethimazole, 5-Phenylmethimazole]: the “fatty liver disease, macroscopically observed in liver tissue” value in the assay on C57BL/6J mice on the HFD (ip 0.1 mg/kg, 1 mg/kg or 10 mg/kg once daily for 18 weeks, compared to HFD mice with sham injection or DMSO) is given as “much less fatty liver disease despite obesity”. In the assay with C57BL/6J mice on the HFD (ip 1 mg/kg or 10 mg/kg once daily for 18 weeks, compared to HFD mice with no phenylmethimazole), the “triglyceride concentration in liver tissue (FIG. 4)” value is on record as “lower triglyceride concentration”. Further, the “prevention of NAFLD” value with C57BL/6J mice on the HFD (ip 0.1, 1, 10 mg/kg once daily for 18 weeks) was “prevented NAFLD in the mice fed the HFD in a dose-dependent manner”. Also, the “fatty liver disease, microscopic observation of liver tissue (FIG. 3(B)-(D))” value with C57BL/6J mice on the HFD (ip 0.1, 1 or 10 mg/kg once daily for 18 weeks, compared to HFD mice with sham injection or DMSO) is recorded as “much less fatty liver disease”. Also, in assay [1], the “fat content in the liver tissue of the mice” value is on record as “reduced relative to a baseline level”. Also, the “excess accumulation of fat in the liver” value in assay [2] is “no excess accumulation of fat has occurred”. Moreover, the “fat content in the patient's liver” value in the assay on patient having NAFLD is listed as “reduced relative to the baseline level”.
